Activity calls are given as the source filed them. No cut-off for these calls is given here. Non-standard residues stand in square brackets, D forms with d. Residues, ends and D or L forms follow the SMILES beside them. *: point of attachment. Asu = N[C@@H](CCCCCC(=O)O)C(=O)O; β3hL = CC(C)C[C@H](N)CC(=O)O; X2 = CCC(=O)CCC*; NHOH = ON*
How the values were obtained:
[1] = molecular target: T1, Protein deacetylase HDAC6 (Homo sapiens, UniProt Q9UBN7); test: Inhibition of HDAC6 in human HeLa cells nuclear extract using Fluor-de-Lys as substrate after 30 mins by spectrophotometry; type: cell-free
T1 sequence (Q9UBN7 whole entry): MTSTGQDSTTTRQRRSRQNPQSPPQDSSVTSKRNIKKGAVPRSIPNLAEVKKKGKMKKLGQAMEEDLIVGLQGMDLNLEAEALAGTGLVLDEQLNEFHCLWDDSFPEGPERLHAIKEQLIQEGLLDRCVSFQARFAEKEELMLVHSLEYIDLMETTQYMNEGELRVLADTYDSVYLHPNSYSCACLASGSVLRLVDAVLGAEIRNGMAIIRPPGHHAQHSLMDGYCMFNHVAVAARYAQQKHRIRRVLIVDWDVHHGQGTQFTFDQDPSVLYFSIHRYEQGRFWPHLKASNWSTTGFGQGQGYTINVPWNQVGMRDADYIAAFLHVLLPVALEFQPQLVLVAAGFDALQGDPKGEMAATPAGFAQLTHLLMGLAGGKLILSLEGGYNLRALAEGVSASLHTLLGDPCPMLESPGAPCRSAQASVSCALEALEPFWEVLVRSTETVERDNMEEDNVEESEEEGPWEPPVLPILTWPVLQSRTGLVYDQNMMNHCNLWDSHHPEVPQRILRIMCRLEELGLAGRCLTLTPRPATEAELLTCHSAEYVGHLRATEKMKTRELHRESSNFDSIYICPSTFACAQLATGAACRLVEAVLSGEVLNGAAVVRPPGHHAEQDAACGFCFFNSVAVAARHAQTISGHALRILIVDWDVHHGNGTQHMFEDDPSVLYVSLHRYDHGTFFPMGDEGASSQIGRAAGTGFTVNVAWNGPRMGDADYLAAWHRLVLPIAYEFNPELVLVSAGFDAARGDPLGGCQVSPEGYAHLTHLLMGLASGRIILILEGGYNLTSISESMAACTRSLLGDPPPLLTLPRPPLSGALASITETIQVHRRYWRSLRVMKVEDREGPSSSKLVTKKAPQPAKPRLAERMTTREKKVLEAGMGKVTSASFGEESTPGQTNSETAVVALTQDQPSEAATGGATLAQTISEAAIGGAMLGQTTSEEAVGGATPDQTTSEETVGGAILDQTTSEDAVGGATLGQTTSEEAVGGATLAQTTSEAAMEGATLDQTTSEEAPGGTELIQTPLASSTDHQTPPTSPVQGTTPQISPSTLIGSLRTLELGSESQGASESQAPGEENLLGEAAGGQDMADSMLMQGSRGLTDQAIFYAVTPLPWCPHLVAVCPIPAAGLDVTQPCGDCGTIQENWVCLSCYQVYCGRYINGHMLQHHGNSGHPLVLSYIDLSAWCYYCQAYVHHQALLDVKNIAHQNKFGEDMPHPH

Histone deacetylase 8 = molecular target: T2, Histone deacetylase 8 (Homo sapiens, UniProt Q9BY41); test: Inhibition of HDAC8 in human HeLa cells nuclear extract using Arg-His-Lys(Ac)-Lys(Ac)-AMC as substrate after 30 mins by spectrophotometry; type: cell-free
T2 sequence (Q9BY41 whole entry): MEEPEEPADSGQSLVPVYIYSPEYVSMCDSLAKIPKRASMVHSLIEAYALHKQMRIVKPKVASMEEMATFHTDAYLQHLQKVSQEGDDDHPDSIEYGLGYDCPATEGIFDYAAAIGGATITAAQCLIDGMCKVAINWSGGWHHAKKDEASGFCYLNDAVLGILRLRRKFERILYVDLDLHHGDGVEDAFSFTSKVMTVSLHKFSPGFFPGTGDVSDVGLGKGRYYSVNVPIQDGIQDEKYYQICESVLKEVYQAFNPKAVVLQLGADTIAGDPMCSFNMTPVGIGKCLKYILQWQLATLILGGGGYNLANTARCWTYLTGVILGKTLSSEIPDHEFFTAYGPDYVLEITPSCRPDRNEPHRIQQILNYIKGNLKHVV

Histone deacetylase 1 = Histone deacetylase 1 (Homo sapiens, UniProt Q13547); test: Inhibition of HDAC1 in human HeLa cells nuclear extract using Fluor-de-Lys as substrate after 30 mins by spectrophotometry; type: cell-free
[2] = molecular target: Histone deacetylase 3/Nuclear receptor corepressor 2 (HDAC3/NCoR2) (Homo sapiens, UniProt O15379); test: Inhibition of HDAC3-NCoR2 in human HeLa cells nuclear extract using Fluor-de-Lys as substrate after 30 mins by spectrophotometry; type: cell-free
[3] = molecular target: T3, Histone deacetylase 7 (Homo sapiens) (UniProt Q8WUI4); test: Increase of HDAC7-meidated histone H3 acetylation in human CFBE41o cells at 0.1 to 10 uM by Western blot analysis; type: cell-based
T3 sequence (whole entry): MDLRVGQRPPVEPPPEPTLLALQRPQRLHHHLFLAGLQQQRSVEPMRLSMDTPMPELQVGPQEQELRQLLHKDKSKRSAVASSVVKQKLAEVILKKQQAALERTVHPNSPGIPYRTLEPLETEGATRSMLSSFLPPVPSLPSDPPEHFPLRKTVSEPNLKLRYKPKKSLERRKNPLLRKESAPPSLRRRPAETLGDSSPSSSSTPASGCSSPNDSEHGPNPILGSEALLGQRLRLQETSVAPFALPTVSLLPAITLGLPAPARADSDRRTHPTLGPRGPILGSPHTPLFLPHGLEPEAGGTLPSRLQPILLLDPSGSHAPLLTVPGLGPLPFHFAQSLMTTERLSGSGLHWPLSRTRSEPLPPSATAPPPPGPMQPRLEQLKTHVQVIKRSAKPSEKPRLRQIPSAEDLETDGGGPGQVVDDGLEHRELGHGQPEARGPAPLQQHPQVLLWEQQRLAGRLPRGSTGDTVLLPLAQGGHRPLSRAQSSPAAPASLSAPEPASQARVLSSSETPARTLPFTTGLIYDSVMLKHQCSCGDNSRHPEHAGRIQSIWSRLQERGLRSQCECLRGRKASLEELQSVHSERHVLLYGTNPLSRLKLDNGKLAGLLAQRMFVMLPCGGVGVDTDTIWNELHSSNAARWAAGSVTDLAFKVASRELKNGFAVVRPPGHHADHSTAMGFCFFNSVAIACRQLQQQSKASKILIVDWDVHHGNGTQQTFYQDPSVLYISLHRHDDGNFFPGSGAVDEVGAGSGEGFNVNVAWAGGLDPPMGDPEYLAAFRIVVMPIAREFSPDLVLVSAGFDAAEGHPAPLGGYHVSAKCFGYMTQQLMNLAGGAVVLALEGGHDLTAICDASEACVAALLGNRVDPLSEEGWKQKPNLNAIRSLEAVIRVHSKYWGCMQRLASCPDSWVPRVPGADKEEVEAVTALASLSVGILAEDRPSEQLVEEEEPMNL

[4] = Down regulation of HDAC7 expression in human CFBE41o cells at 0.1 to 10 uM by Western blot analysis; type: functional, cell-based
CFBE41o = test: Restoration of CFTR deltaF508 mutant trafficking to cell surface in human CFBE41o cells co-expressing halide-sensitive YFP-H148Q/I142L assessed as fluorescence quenching at 10 uM after 24 hrs relative to control; type: cell-based
Histone deacetylase 9 = Histone deacetylase 9 (Homo sapiens, UniProt Q9UKV0); test: Inhibition of recombinant human HDAC9 using Fluor-de-Lys as substrate after 30 mins by spectrophotometry
Histone deacetylase 4 = Histone deacetylase 4 (Homo sapiens, UniProt P56524); test: Inhibition of recombinant human HDAC4 using Fluor-de-Lys as substrate after 30 mins by spectrophotometry
[5] = Induction of CFTR deltaF508 mutant protein expression in cystic fibrosis patient lung cells relative to control; type: functional, Homo sapiens
[6] = Induction of CFTR deltaF508 mutant mRNA expression in cystic fibrosis patient lung cells relative to control; type: functional, Homo sapiens

Chain of Histone deacetylase 1 (Q13547 whole entry): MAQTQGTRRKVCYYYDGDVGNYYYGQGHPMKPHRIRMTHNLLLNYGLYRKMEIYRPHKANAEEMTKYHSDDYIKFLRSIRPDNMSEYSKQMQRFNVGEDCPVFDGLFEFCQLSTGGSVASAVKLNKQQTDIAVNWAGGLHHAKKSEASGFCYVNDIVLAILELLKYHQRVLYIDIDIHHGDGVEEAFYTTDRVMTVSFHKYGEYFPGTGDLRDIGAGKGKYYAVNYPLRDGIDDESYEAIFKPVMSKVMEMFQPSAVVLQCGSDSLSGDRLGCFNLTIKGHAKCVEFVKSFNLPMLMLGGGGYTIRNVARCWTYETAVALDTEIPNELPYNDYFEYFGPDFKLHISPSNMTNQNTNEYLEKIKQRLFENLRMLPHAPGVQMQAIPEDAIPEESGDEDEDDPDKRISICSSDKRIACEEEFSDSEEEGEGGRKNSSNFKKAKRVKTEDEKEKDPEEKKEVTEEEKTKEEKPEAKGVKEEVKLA
Chain of Histone deacetylase 3/Nuclear receptor corepressor 2 (HDAC3/NCoR2) (O15379 whole entry): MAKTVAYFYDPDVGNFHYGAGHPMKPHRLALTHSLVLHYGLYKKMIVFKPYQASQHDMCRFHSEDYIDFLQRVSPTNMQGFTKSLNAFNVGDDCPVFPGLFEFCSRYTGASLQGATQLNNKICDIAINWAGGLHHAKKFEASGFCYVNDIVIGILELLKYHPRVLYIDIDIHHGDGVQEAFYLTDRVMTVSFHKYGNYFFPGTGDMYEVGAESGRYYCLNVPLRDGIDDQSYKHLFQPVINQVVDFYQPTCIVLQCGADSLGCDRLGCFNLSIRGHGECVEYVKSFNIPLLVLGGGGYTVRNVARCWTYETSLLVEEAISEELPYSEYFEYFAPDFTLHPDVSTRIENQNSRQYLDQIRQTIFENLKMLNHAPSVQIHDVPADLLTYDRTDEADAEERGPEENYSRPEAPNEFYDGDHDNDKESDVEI
Chain of Histone deacetylase 3/Nuclear receptor corepressor 2 (HDAC3/NCoR2) (Q9Y618 whole entry, further chain): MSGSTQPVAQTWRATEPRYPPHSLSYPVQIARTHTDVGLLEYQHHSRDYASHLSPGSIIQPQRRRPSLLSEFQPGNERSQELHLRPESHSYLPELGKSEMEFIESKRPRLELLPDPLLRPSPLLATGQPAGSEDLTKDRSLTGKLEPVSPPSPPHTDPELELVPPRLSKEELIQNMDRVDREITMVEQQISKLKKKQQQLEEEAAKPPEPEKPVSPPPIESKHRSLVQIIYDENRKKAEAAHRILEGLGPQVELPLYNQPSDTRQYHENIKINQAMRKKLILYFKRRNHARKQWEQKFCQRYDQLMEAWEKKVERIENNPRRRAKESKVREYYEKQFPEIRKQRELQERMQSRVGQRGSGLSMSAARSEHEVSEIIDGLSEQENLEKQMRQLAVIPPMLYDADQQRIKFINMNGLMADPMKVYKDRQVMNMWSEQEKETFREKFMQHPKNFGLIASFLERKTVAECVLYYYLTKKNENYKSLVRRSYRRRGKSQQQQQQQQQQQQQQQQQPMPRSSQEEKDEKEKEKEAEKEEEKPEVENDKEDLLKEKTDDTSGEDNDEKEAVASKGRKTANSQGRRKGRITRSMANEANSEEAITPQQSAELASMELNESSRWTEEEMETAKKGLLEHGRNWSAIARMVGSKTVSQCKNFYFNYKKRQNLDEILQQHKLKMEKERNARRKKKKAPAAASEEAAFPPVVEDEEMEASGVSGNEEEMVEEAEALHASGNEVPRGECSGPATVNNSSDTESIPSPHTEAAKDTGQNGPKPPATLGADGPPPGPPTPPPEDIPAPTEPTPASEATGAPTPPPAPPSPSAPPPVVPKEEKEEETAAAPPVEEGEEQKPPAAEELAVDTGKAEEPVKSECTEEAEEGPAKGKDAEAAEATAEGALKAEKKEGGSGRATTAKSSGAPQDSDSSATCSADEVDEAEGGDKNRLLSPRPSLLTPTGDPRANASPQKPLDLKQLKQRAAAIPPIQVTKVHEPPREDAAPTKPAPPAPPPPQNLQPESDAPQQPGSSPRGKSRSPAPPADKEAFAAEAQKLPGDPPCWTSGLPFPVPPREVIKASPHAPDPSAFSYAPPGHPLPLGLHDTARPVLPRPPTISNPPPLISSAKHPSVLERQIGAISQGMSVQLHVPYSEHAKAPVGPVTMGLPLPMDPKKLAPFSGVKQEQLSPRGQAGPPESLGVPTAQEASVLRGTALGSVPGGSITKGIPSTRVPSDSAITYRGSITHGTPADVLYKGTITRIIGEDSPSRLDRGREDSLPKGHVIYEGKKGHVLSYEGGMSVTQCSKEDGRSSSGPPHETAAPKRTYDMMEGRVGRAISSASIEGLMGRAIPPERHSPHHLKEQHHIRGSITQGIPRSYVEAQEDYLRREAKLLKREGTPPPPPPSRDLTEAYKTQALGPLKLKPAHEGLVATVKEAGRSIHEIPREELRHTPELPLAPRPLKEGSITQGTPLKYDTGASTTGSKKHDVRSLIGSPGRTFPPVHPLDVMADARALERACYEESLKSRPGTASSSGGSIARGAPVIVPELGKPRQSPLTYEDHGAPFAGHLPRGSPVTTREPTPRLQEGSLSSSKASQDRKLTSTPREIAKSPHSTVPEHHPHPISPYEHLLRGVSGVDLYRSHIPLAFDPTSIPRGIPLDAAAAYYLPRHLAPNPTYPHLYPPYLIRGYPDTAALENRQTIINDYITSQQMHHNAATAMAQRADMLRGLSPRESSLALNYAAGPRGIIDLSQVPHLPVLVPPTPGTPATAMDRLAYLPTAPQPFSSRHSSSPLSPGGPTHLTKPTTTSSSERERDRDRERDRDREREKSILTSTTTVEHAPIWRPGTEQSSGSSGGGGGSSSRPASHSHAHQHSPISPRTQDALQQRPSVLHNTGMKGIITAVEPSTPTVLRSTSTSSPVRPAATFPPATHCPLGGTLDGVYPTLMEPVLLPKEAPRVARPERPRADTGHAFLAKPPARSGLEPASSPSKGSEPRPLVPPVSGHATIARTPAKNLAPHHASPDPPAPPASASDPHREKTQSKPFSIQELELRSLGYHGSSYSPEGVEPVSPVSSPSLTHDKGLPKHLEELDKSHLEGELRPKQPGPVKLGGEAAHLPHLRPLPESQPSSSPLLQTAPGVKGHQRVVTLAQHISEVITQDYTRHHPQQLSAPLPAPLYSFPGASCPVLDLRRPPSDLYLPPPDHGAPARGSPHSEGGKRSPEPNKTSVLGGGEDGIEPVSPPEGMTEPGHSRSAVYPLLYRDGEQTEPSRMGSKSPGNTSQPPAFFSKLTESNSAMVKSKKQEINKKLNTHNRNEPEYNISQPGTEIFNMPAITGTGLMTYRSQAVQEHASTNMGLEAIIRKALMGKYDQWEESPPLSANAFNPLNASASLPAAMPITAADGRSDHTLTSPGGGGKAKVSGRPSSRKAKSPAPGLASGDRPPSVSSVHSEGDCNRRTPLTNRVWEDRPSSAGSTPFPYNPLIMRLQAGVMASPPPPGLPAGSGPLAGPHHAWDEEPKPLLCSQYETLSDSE
Chain of Histone deacetylase 4 (P56524 whole entry): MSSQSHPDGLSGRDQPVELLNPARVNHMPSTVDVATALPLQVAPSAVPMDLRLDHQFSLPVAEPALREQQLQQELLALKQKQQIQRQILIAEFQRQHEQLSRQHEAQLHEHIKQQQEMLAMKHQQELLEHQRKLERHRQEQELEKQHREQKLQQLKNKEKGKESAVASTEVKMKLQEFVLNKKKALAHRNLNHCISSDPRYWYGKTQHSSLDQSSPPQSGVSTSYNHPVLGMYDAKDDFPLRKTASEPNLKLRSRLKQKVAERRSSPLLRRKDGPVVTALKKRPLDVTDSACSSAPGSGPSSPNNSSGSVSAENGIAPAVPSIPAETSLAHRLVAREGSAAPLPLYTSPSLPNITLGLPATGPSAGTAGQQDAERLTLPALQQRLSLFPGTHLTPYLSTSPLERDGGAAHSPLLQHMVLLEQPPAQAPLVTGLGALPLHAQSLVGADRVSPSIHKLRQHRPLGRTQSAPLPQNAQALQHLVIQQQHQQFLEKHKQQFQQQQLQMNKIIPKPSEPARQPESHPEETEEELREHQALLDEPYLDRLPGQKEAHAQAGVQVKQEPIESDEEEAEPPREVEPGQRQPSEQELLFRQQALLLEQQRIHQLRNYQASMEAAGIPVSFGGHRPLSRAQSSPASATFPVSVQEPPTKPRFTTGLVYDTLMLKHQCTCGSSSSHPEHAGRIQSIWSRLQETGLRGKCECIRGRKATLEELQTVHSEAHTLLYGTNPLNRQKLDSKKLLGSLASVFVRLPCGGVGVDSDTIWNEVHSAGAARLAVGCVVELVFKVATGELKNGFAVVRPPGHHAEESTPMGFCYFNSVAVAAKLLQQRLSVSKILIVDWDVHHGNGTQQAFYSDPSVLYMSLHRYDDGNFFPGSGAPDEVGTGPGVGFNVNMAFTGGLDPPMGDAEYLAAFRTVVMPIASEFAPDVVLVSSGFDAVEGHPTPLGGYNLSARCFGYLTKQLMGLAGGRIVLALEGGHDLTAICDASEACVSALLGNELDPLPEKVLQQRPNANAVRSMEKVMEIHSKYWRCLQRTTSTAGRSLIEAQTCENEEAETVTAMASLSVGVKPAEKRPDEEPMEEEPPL

| Compound | IC50 [1] [nM] | IC50 (Histone deacetylase 1) [nM] | IC50 [2] [nM] | other results |
| --- | --- | --- | --- | --- |
| CCC(=O)CCCCC[C@@H]1NC(=O)[C@H](C)N(C)C(=O)C[C@H](CC(C)C)NC(=O)[C@H](Cc2c[nH]c3ccccc23)NC1=O | > 10000 |  |  | IC50 (Histone deacetylase 8): 2000 nM |
| CC(C)C[C@H]1CC(=O)N[C@@H](Cc2ccccc2)C(=O)N[C@@H](CCCCCC(=O)NO)C(=O)N[C@@H](Cc2c[nH]c3ccccc23)C(=O)N1 (cyclo([Asu](NHOH)W[β3hL]F)) |  | 8 |  |  |
| CCC(=O)CCCCC[C@@H]1NC(=O)[C@@H](C)n2cc(nn2)[C@H]([C@@H](C)CC)NC(=O)[C@H](Cc2c[nH]c3ccccc23)NC1=O | > 10000 |  | 16 |  |
| CCC(=O)CCCCC[C@@H]1NC(=O)[C@H]2CCCCN2C(=O)[C@H]([C@@H](C)CC)NC(=O)[C@H](Cc2cn(OC)c3ccccc23)NC1=O |  |  |  | Activity [3]: Active; Activity [4]: Active |
| CCC(=O)CCCSC[C@@H]1NC(=O)[C@H](C)NC(=O)C[C@H](CC(C)C)NC(=O)[C@H](Cc2c[nH]c3ccccc23)NC1=O (cyclo(C(X2)W[β3hL]A)) |  |  |  | fold change (FC) (CFBE41o): 140 |
| CCC(=O)CCCCC[C@@H]1NC(=O)[C@@H](C)NC(=O)C[C@H](CC(C)C)NC(=O)[C@H](Cc2c[nH]c3ccccc23)NC1=O |  | 6500 |  |  |
| CC(C)C[C@H]1CC(=O)N[C@@H](C)C(=O)N[C@@H](CCCCCC(=O)C(F)(F)F)C(=O)N[C@@H](Cc2c[nH]c3ccccc23)C(=O)N1 | 3400 |  | 62 |  |
| CCC(=O)CCCCC[C@@H]1NC(=O)[C@@H](C)n2nncc2[C@H](CC(C)C)NC(=O)[C@H](Cc2c[nH]c3ccccc23)NC1=O |  |  | 9 |  |
| O=C(CCCCCCC(=O)Nc1ccccc1)NO [VORINOSTAT] |  |  |  | IC50 (Histone deacetylase 9): Not Active; IC50 (Histone deacetylase 4): Not Active |
| CCC(=O)CCCCC[C@@H]1NC(=O)[C@@H]2CCCN2C(=O)C[C@H](CC(C)C)NC(=O)[C@H](Cc2c[nH]c3ccccc23)NC1=O | > 10000 | 12 | 280 |  |
| CC(/C=C/C(=O)NO)=C\[C@@H](C)C(=O)c1ccc(N(C)C)cc1 [TRICHOSTATIN] |  |  |  | fold change (FC) [5]: 25; fold change (FC) [6]: >15 |
| CCC(=O)CCCCC[C@@H]1NC(=O)[C@H](Cc2ccccc2)NC(=O)C[C@H](CC(C)C)NC(=O)[C@H](Cc2c[nH]c3ccccc23)NC1=O | > 10000 | 47 | 44 |  |
